# From patent US20220002288A1, “MONOBACTAM COMPOUNDS AND USE THEREFOR” (priority 2018, published 2022)
# Legend:
# [1] = test system: drug-resistant Acinetobacter baumannii; test: MIC in combination with Relebactam; type: cell-based
# From the text: In addition, the inventors of the present invention also tested the inhibitory activities of the compound of Example 1 and Compound C, respectively, in combination with Relebactam on drug-resistant Acinetobacter baumannii (the experimental method was the same as that in Experimental Example 1).
# [2] = test system: clinically isolated Escherichia coli; test: MIC experiment of clinically sourced bacterial strains; type: cell-based
# Protocol: (§1) Compounds: the compound of Example 1 and Compound C of Comparative Example 3. Both test compounds were dissolved and diluted with DMSO, and the final concentrations were prepared as 64, 32, 16, 8, 4, 2, 1, 0.5, 0.25, 0.125, 0.0625 μg/mL in the experiment.
# (§2) Bacterial strains: clinically isolated Acinetobacter baumannii, Pseudomonas aeruginosa, Klebsiella pneumoniae and Escherichia coli, all provided by HD Biosciences (Shanghai) Co., Ltd.
# (§3) Medium: Trypticase soy agar (TSA) (BD BBL 211043), and Cation-adjusted Mueller Hinton broth (CAMHB) (BD BBL212322).
# (§4) The experimental method was the same as that in the above Experimental Example 1.
# [3] = test system: clinically isolated Pseudomonas aeruginosa; test: as above; type: cell-based
# Protocol: as §1, §2, §3, §4
# [4] = test system: clinically isolated Acinetobacter baumannii; test: as above; type: cell-based; conditions: for MIC: Acinetobacter baumannii
# Protocol: as §1, §2, §3, §4
# [5] = test system: clinically isolated Klebsiella pneumoniae; test: as above; type: cell-based; conditions: Klebsiella pneumoniae
# Protocol: as §1, §2, §3, §4
# [6] = test system: Acinetobacter baumannii, Pseudomonas aeruginosa, and Escherichia coli; test: In vitro antibacterial activity, summary statements over all strains of Experimental Example 1; type: cell-based; conditions: method of Experimental Example 1
# Protocol: Compounds: The compounds prepared in the above examples and comparative examples. All test compounds were dissolved and diluted with DMSO, and the final concentrations were prepared as 64, 32, 16, 8, 4, 2, 1, 0.5, 0.25, 0.125, 0.0625 μg/mL in the experiment.
# Bacterial strains: 6 strains of Acinetobacter baumannii (codenames: HDBAB-YK4, HDBAB-YK7, HDBAB-YK12, HDBAB-YK16, HDBAB_OXA_7, ATCC 19606), 2 strains of Pseudomonas aeruginosa (codenames: HDBPA-YK9, HDBPA)-YK15), 1 strain of Escherichia coli (codename: CLB30048), all provided by HD Biosciences (Shanghai) Co., Ltd.
# The minimum inhibitory concentration (MIC) of each compound was recorded according to the guidelines of the Clinical and Laboratory Standards Institute.
# [7] = Pharmacokinetics of the compounds in mice; type: in vivo, BALB/c mice; conditions: compared with some compounds of the present invention
# From the text: Animals: male BALB/c mice, SPF grade, purchased from Changzhou Cavens Experimental Animal Co., Ltd.; 16-24 g, license number: SCXK (Su)2016-0010; 2 to 3 days of adaptation period were given before the experiment.
# Instruments: API 4500 High Performance Liquid Chromatograph Coupled Triple Quadrupole Mass Spectrometer, and Analyst QS A01.01 Chromatography Workstation were both purchased from AB SCIEX of the United States; Milli-Q ultrapure water device was purchased from Millipore; CF16R XII desktop high-speed refrigerated centrifuge was purchased From Hitachi Company; Qilinbeier Vortex-5 oscillator was purchased from IKA Company of German; electric heating constant-temperature water bath was purchased from Changzhou Guohua Electric Appliance Co., Ltd.; electric pipette was purchased from Thermo Company of American; and microanalysis balance was purchased from Shanghai Mettler Co., Ltd.
# 2 mg of the test compound was weighed, added to physiological saline, vortexed for 2 min, and ultrasonicated for 3 min, to prepare a test solution with a concentration of 0.2 mg/mL for intravenous administration.
# A single dose of 2 mg/kg of the test compound was administered to BALB/c mice via the tail vein, the dose volume being 0.1 mL/10 g. At 5 min, 15 min, 30 min, 1 h, 2 h, 4 h after administration, blood samples were collected from the orbital venous plexus into heparinized EP tubes (0.6 mL), which were temporarily placed on crushed ice.
# The samples were centrifuged at 8000 rpm for 5 min. 15 μL of upper plasma were transferred to a 96-well plate. 150 μL of methanol:acetonitrile (v/v=1:1) (containing 20 ng/mL tolbutamide) was added to 15 μL of plasma, shaken for 3 min, and centrifuged at 4500 rpm for 5 min. 100 μL of supernatant was taken to a 2 mL deep well plate. 100 μL of diluent (pure water) was added. The samples were shaken for 3 min, and centrifuged at 4500 rpm for 5 min. 180 μL of the supernatant was transferred to the sample plate. The content of the compound in the supernatant sample was analyzed by LC-MS/MS, and various pharmacokinetic parameters were calculated with WinNonlin software.
compound,measurement,setting,value
"CC1(C)[C@H](NC(=O)/C(=N\O[C@@H](COc2ccc(-c3cn(CCCN)[n+](CC4CNC4)c3)cc2)C(=O)O)c2csc(N)n2)C(=O)N1OS(=O)(=O)[O-] [Compound C, reference compound]",MIC,"[1]; strain HDBAB-YK12, in combination with 4 μg/mL Relebactam",8 µg/mL
same,MIC,"[1]; strain HDBAB-YK16, in combination with 4 μg/mL Relebactam",16 µg/mL
same,MIC,"[1]; strain HDBAB_OXA_7, in combination with 4 μg/mL Relebactam",16 µg/mL
same,MIC,[2]; clinical strain HDB0140,2 µg/mL
same,MIC,[2]; clinical strain HDB0918,0.25 µg/mL
same,MIC,[2]; clinical strain HDB1120,0.125 µg/mL
same,MIC,[2]; clinical strain HDB5510,0.25 µg/mL
same,MIC,[2]; clinical strain HDB8244,0.25 µg/mL
same,MIC,[3]; clinical strain P7,2 µg/mL
same,MIC,[3]; clinical strain P43,0.25 µg/mL
same,MIC,[3]; clinical strain P155,2 µg/mL
same,MIC,[3]; clinical strain P157,2 µg/mL
same,MIC,[3]; clinical strain P162,2 µg/mL
same,MIC,[4]; clinical strain A0242702,≤ 0.063 µg/mL
same,MIC,[4]; clinical strain A0244122,2 µg/mL
same,MIC,[4]; clinical strain A0248164,2 µg/mL
same,MIC,[4]; clinical strain A0248384,2 µg/mL
same,MIC,[4]; clinical strain A0252247,0.125 µg/mL
same,MIC,[4]; clinical strain A0254384,0.125 µg/mL
same,MIC,[4]; clinical strain A0255830,16 µg/mL
same,MIC,[4]; clinical strain A0257674,0.125 µg/mL
same,MIC,[4]; clinical strain A0258522,0.125 µg/mL
same,MIC,[4]; clinical strain A0262855,0.125 µg/mL
same,MIC,[4]; clinical strain A0270386,1 µg/mL
same,MIC,[4]; clinical strain A0272260,0.125 µg/mL
same,MIC,[4]; clinical strain A0273375,1 µg/mL
same,MIC,[4]; clinical strain A0273826,16 µg/mL
same,MIC,[4]; clinical strain A0274925,0.25 µg/mL
same,MIC,[4]; clinical strain A0283307,0.125 µg/mL
same,MIC,[4]; clinical strain A0284214,0.125 µg/mL
same,MIC,[4]; clinical strain A0284295,0.125 µg/mL
same,MIC,[4]; clinical strain A0284552,0.5 µg/mL
same,MIC,[4]; clinical strain A0285002,2 µg/mL
same,MIC,[4]; clinical strain A0285050,0.25 µg/mL
same,MIC,[4]; clinical strain A0285231,2 µg/mL
same,MIC,[4]; clinical strain A0285299,0.25 µg/mL
same,MIC,[4]; clinical strain A0285369,≤ 0.063 µg/mL
same,MIC,[4]; clinical strain A0285909,16 µg/mL
same,MIC,[4]; clinical strain A0286065,2 µg/mL
same,MIC90,[4]; clinically isolated Acinetobacter baumannii,16 µg/mL
same,MIC,[5]; clinical strain Kp309,0.25 µg/mL
same,MIC,[5]; clinical strain Kp310,≤ 0.063 µg/mL
same,MIC,[5]; clinical strain Kp472,0.125 µg/mL
same,MIC,[5]; clinical strain Kp510,0.25 µg/mL
same,in vitro antibacterial activity (in words),[6],weaker
same,bioavailability (F) (in words),[7],weaker
